In ChEMBL document CHEMBL1759920, “C20-trifluoro-5-oxo-ETE: a metabolically stable 5-oxo-ETE derivative” (Bioorg Med Chem Lett, 2011):
Calls of active or inactive are those of the source. The rule behind the calls is not given here.

What was measured:
Oxoeicosanoid receptor 1 [1] = molecular target: T1, Oxoeicosanoid receptor 1 (Homo sapiens, UniProt Q8TDS5); assay: Agonist activity at 5-oxo-ETE receptor in indo-1-labeled human neutrophils assessed as stimulation intracellular calcium level at 100 nM followed by 5-oxo-ETE addition at 2.5 mins in presence of digitonin added at 3.5 mins; format: functional, cell-based
Oxoeicosanoid receptor 1 [2] = molecular target: T1, Oxoeicosanoid receptor 1; assay: Desensitization of 5-oxo-ETE receptor in indo-1-labeled human neutrophils assessed as inhibition of 5-oxo-ETE-induced calcium mobilization; format: functional
Neutrophil [3] = assay: Induction of intracellular calcium level in indo-1-labeled human neutrophils cells assessed as calcium mobilization relative to 5-oxo-ETE; format: functional
Neutrophil [4] = assay: Induction of intracellular calcium level in indo-1-labeled human neutrophils cells assessed as calcium mobilization; format: functional, cell-based

T1 sequence (Q8TDS5 whole entry): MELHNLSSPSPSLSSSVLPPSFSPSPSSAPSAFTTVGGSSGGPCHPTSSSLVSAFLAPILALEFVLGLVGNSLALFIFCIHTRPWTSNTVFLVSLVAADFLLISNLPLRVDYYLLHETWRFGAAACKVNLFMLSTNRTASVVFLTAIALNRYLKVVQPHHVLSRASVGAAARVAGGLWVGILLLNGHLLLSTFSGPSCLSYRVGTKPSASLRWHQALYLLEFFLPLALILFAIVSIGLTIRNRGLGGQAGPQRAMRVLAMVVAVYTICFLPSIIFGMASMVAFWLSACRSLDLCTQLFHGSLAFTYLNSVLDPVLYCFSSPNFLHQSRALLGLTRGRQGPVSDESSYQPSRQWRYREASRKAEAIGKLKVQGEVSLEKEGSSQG

| Activity (Oxoeicosanoid receptor 1 [1]) | EC50 (Neutrophil [4]) [nM] | Structure (SMILES) | IC50 (Oxoeicosanoid receptor 1 [2]) [nM] | Activity (Neutrophil [3]) [%] |
| --- | --- | --- | --- | --- |
| Active |  | O=C(O)CCCC(=O)/C=C/C=C\C/C=C\C/C=C\CCCCC(F)(F)F | 7.5 | 50 |
|  | 4 | CCCCC/C=C\C/C=C\C/C=C\C=C\C(=O)CCCC(=O)O [5-OXO-ETE] | 3 |  |
